Data: patent EP0670711B1, “ANTIFUNGAL MOUTHCARE COMPOSITIONS” (AMBI Inc., priority 1992, dated 1994)
Converted amounts (≈) assume the structure as drawn. Each block holds one molecule with its values, some of them ahead of it.

What was measured:
Assay type in all cases: cell-based
[1] = tested on: Candida albicans; test: nominal inhibitory concentration (NIC) assay
[2] = tested on: Act. israelii; test: nominal inhibitory concentration (NIC) assay
[3] = tested on: Peptostrepto. micros; test: nominal inhibitory concentration (NIC) assay
[4] = tested on: Candida organisms; test: NIC assay, summary for Candida; settings: result in words
Description: (§1) Thus, lower levels of such antimicrobial agent may be used in the present invention if it intended that such antimicrobial agent is being included principally to provide anti-Candida activity, to supplement the gap in the spectrum of activity of nisin.

[5] = tested on: Act. actinomycetem; test: nominal inhibitory concentration (NIC) assay
[6] = tested on: Strep. milleri; test: nominal inhibitory concentration (NIC) assay
[7] = tested on: Bact. intermedius; test: nominal inhibitory concentration (NIC) assay
[8] = tested on: Lacto odontolyticus; test: nominal inhibitory concentration (NIC) assay
[9] = tested on: Strep.mutans; test: nominal inhibitory concentration (NIC) assay
[10] = tested on: Candida tropicalis; test: nominal inhibitory concentration (NIC) assay
[11] = tested on: Act. naeslundii; test: nominal inhibitory concentration (NIC) assay
[12] = tested on: Porph. gingivalis; test: nominal inhibitory concentration (NIC) assay
[13] = tested on: Strep mitior; test: nominal inhibitory concentration (NIC) assay
[14] = tested on: Strep.pyogenes; test: nominal inhibitory concentration (NIC) assay
[15] = tested on: Fuso. nucleatum; test: nominal inhibitory concentration (NIC) assay
[16] = tested on: all the organisms shown in the Example 25 Table 1; test: NIC assay, summary over all organisms of Table 1; settings: all organisms of Example 25 Table 1 (for CPC: kills all the organisms)
Description: as §1

[17] = tested on: Candida kefyr; test: nominal inhibitory concentration (NIC) assay
[18] = tested on: Strep. sanguis; test: nominal inhibitory concentration (NIC) assay
[19] = tested on: W recta NCTC 11489; test: zone diffusion assay; settings: solution with 500ppm of each agent
Description: (§2) The assay was repeated for each of cetyl pyridinium chloride, chlorhexidine or triclosan individually. […]

[20] = tested on: A actinomyces NCTC 9709; test: zone diffusion assay; settings: solution with 500ppm of each agent
Description: as §2

[21] = tested on: S sanguis NCTC 10904; test: zone diffusion assay; settings: solution with 500ppm of each agent
Description: as §2

[22] = tested on: C kefyr NCTC 3106; test: zone diffusion assay; settings: solution with 500ppm of each agent
Description: as §2

[23] = tested on: C tropicalis NCTC 3114; test: zone diffusion assay; settings: solution with 500ppm of each agent
Description: as §2

[24] = tested on: F nucleatum NCTC 10562; test: zone diffusion assay; settings: solution with 500ppm of each agent
Description: as §2

[25] = tested on: C albicans NCTC 3089; test: zone diffusion assay; settings: solution with 500ppm of each agent
Description: as §2

[26] = tested on: S mutans NCTC 11061; test: zone diffusion assay; settings: solution with 500ppm of each agent
Description: as §2

[27] = tested on: Bact. ureolyticus; test: nominal inhibitory concentration (NIC) assay
[28] = tested on: Act. odontolyticus; test: nominal inhibitory concentration (NIC) assay
[29] = tested on: Strep. agalactiæ; test: nominal inhibitory concentration (NIC) assay
[30] = tested on: Strep. salivarius; test: nominal inhibitory concentration (NIC) assay
[31] = tested on: Staph.aureus; test: nominal inhibitory concentration (NIC) assay
[32] = tested on: G.vaginalis; test: nominal inhibitory concentration (NIC) assay
[33] = tested on: Strep. mitis; test: nominal inhibitory concentration (NIC) assay
[34] = tested on: Strep. mitis; test: nominal inhibitory concentration (NIC) assay; settings: Streptococcus mitis; Strep. mitis; read-out: NIC
[35] = tested on: Act. odontolyticus; test: nominal inhibitory concentration (NIC) assay; settings: Schaalia odontolytica; Act. odontolyticus; read-out: NIC
[36] = tested on: Strep mitior; test: nominal inhibitory concentration (NIC) assay; settings: Strep mitior; read-out: NIC
[37] = tested on: all the organisms shown in the Example 25 Table 1; test: NIC assay, summary over all organisms of Table 1; settings: read-out: levels needed to inhibit all the desired oral microrganisms
[38] = tested on: Act. actinomycetem; test: nominal inhibitory concentration (NIC) assay; settings: Act. actinomycetem; read-out: NIC
[39] = tested on: Bact. ureolyticus; test: nominal inhibitory concentration (NIC) assay; settings: Bact. ureolyticus; read-out: NIC
[40] = tested on: Act. naeslundii; test: nominal inhibitory concentration (NIC) assay; settings: Actinomyces naeslundii; Act. naeslundii; read-out: NIC
[41] = tested on: G.vaginalis; test: nominal inhibitory concentration (NIC) assay; settings: Gardnerella vaginalis; G.vaginalis; read-out: NIC
[42] = tested on: Strep. salivarius; test: nominal inhibitory concentration (NIC) assay; settings: Streptococcus salivarius; Strep. salivarius; read-out: NIC
[43] = tested on: Staph.aureus; test: nominal inhibitory concentration (NIC) assay; settings: Staphylococcus aureus; Staph.aureus; read-out: NIC
[44] = tested on: Bact. intermedius; test: nominal inhibitory concentration (NIC) assay; settings: Prevotella intermedia; Bact. intermedius; read-out: NIC
[45] = tested on: Candida kefyr; test: nominal inhibitory concentration (NIC) assay; settings: Kluyveromyces marxianus; Candida kefyr; read-out: NIC
[46] = tested on: Peptostrepto. micros; test: nominal inhibitory concentration (NIC) assay; settings: Peptostrepto. micros; read-out: NIC
[47] = tested on: Strep.pyogenes; test: nominal inhibitory concentration (NIC) assay; settings: Streptococcus pyogenes; Strep.pyogenes; read-out: NIC
[48] = tested on: Candida organisms; test: NIC assay, summary for Candida
[49] = tested on: Fuso. nucleatum; test: nominal inhibitory concentration (NIC) assay; settings: Fusobacterium nucleatum; Fuso. nucleatum; read-out: NIC
[50] = tested on: Act. israelii; test: nominal inhibitory concentration (NIC) assay; settings: Actinomyces israelii; Act. israelii; read-out: NIC
[51] = tested on: Porph. gingivalis; test: nominal inhibitory concentration (NIC) assay; settings: Porphyromonas gingivalis; Porph. gingivalis; read-out: NIC
[52] = tested on: Candida tropicalis; test: nominal inhibitory concentration (NIC) assay; settings: read-out: NIC
[53] = tested on: Strep. agalactiæ; test: nominal inhibitory concentration (NIC) assay; settings: Strep. agalactiæ; read-out: NIC
[54] = tested on: Strep. sanguis; test: nominal inhibitory concentration (NIC) assay; settings: Strep. sanguis; read-out: NIC
[55] = tested on: Lacto odontolyticus; test: nominal inhibitory concentration (NIC) assay; settings: Lacto odontolyticus; read-out: NIC
[56] = tested on: Strep. milleri; test: nominal inhibitory concentration (NIC) assay; settings: Strep. milleri; read-out: NIC
[57] = tested on: Candida albicans; test: nominal inhibitory concentration (NIC) assay; settings: read-out: NIC
[58] = tested on: Strep.mutans; test: nominal inhibitory concentration (NIC) assay; settings: Streptococcus mutans; Strep.mutans; read-out: NIC

Molecule: nisin [Ambicin N]
- NIC [1]: >128 ppm
- NIC [2]: 0.53 ppm
- NIC [3]: >1.28 ppm
- inhibitory activity against candida species [4]: lacks effective inhibitory activity
- NIC [5]: 0.02 ppm
- NIC [6]: 0.14 ppm
- NIC [7]: 0.91 ppm
- NIC [8]: 0.02 ppm
- NIC [9]: 0.43 ppm
- NIC [10]: >128 ppm
- NIC [11]: >12.8 ppm
- NIC [12]: >1.28 ppm
- NIC [13]: 0.05 ppm
- NIC [14]: 0.009 ppm
- NIC [15]: 0.048 ppm
- levels needed to inhibit all the desired oral microrganisms [16]: about 0.99 ppm
- NIC [17]: >128 ppm
- NIC [18]: 0.23 ppm
- mean zones [19]: 28.19 mm
- mean zones [20]: 23.04 mm
- mean zones [21]: 15.38 mm
- mean zones [22]: 0 mm
- mean zones [23]: 0 mm
- mean zones [24]: 29.38 mm
- mean zones [25]: 0 mm
- mean zones [26]: 18.36 mm
- NIC [27]: 0.035 ppm
- NIC [28]: 0.12 ppm
- NIC [29]: 0.22 ppm
- NIC [30]: 0.18 ppm
- NIC [31]: 0.13 ppm
- NIC [32]: 0.22 ppm
- NIC [33]: 0.33 ppm

- MIC [34]: 1.5 µg/mL (≈ 2.97 µM)
- MIC [35]: 3.37 µg/mL (≈ 6.67 µM)
- MIC [36]: 4.55 µg/mL (≈ 9 µM)
- MIC [37]: ~8.46 µg/mL (≈ 16.7 µM)
- MIC [38]: 0.53 µg/mL (≈ 1.05 µM)
- MIC [39]: 0.69 µg/mL (≈ 1.37 µM)
- MIC [40]: 2.01 µg/mL (≈ 3.98 µM)
- MIC [41]: 1.3 µg/mL (≈ 2.57 µM)
- MIC [42]: 1.44 µg/mL (≈ 2.85 µM)
- MIC [43]: 0.54 µg/mL (≈ 1.07 µM)
- MIC [44]: 2.49 µg/mL (≈ 4.93 µM)
- MIC [45]: 0.42 µg/mL (≈ 0.831 µM)
- MIC [46]: 8.46 µg/mL (≈ 16.7 µM)
- MIC [47]: 0.16 µg/mL (≈ 0.317 µM)
- MIC ([48]; Candida organisms, read-out: levels for Candida inhibition): 1.71 µg/mL (≈ 3.38 µM)
- MIC [49]: 0.64 µg/mL (≈ 1.27 µM)
- MIC [50]: 4.11 µg/mL (≈ 8.13 µM)
- MIC [51]: 2.36 µg/mL (≈ 4.67 µM)
- MIC [52]: 0.98 µg/mL (≈ 1.94 µM)
- MIC [53]: 0.41 µg/mL (≈ 0.811 µM)
- MIC [54]: 0.86 µg/mL (≈ 1.7 µM)
- MIC [55]: 1.88 µg/mL (≈ 3.72 µM)
- MIC [56]: 1.58 µg/mL (≈ 3.13 µM)
- MIC [57]: 1.71 µg/mL (≈ 3.38 µM)
- MIC [58]: 3.94 µg/mL (≈ 7.79 µM)
Molecule: [H]/N=C(\N/C(=N/[H])NCCCCCCNC(=N)NC(=N)Nc1ccc(Cl)cc1)Nc1ccc(Cl)cc1 [CHX, chlorhexidine]
- inhibitory activity against candida species ([48]; result in words, NIC assay): effective
- mean zones [19]: 32.35 mm
- mean zones [20]: 35.68 mm
- mean zones [21]: 22.76 mm
- mean zones [22]: 17.03 mm
- mean zones [23]: 17.36 mm
- mean zones [24]: 36.97 mm
- mean zones [25]: 14.93 mm
- mean zones [26]: 29.68 mm
